Test results reported in patent publication US11912705B2, “Cathinone derivatives, pharmaceutical formulations, and methods” (The Corporation of Mercer University, priority 2020, dated 2024).

Tests used:
M2 (h) = biological target: T1, M2 (h) (Homo sapiens, UniProt P08172); assay: M2 (h) antagonist effect, cAMP HTRF cellular functional assay; assay type: cell-based
T1 construct: expressed in transfected cells; host or cells: CHO cells (human recombinant)
T1 sequence (P08172 1-466): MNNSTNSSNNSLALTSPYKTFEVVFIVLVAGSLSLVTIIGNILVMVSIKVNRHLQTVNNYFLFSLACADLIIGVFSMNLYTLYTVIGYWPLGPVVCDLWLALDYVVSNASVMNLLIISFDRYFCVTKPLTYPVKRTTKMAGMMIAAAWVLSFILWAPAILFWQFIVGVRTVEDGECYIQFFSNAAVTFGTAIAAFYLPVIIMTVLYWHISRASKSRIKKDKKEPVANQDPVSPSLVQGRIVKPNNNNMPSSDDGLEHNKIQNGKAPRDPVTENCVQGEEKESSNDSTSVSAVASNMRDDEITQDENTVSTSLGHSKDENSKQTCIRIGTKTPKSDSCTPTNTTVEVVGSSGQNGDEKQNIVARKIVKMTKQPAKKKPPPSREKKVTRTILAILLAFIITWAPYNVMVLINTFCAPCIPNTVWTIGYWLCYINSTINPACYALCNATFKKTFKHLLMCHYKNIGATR
Experimental: (§1) Compounds (1) and (2) were tested at several concentrations for IC50 or EC50 determination at target receptors. […] For antagonist assays, Kb affinity values were calculated from IC50 values using GraphPad Prism 9 (San Diego, Calif. USA).

5-HT transporter (h) = biological target: T2, 5-HT transporter (h) (Homo sapiens, UniProt P31645); assay: Serotonin transporter (antagonist radioligand) competition binding; details: for Affinity (Ki) SERT: Eurofins/Cerep, N.B. denotes no binding at 100 μM
T2 construct: Eurofins/Cerep (contract testing)
T2 sequence (P31645 whole entry): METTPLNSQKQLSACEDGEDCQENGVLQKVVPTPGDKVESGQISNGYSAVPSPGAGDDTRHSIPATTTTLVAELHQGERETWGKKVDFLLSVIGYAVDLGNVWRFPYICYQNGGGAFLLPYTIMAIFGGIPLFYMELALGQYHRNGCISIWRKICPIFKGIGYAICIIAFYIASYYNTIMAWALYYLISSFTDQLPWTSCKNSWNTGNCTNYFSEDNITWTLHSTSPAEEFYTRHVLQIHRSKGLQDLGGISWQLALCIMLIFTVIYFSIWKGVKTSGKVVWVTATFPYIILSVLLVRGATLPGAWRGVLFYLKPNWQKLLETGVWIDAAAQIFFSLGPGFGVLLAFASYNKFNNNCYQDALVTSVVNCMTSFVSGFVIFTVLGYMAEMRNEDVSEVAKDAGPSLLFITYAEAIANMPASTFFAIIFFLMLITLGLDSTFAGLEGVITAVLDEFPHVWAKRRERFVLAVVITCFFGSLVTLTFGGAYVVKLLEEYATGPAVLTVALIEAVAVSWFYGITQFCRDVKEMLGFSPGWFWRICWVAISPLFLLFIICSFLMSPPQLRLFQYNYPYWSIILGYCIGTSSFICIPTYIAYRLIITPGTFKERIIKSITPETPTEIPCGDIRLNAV
Experimental: as §1

Dopamine transporter (h) = biological target: T3, Dopamine transporter (h) (Homo sapiens, UniProt Q01959); assay: Dopamine transporter (h) (antagonist radioligand) competition binding; details: for nH: Dopamine transporter (h) (antagonist radioligand)
T3 construct: Eurofins/Cerep (contract testing)
T3 sequence (Q01959 whole entry): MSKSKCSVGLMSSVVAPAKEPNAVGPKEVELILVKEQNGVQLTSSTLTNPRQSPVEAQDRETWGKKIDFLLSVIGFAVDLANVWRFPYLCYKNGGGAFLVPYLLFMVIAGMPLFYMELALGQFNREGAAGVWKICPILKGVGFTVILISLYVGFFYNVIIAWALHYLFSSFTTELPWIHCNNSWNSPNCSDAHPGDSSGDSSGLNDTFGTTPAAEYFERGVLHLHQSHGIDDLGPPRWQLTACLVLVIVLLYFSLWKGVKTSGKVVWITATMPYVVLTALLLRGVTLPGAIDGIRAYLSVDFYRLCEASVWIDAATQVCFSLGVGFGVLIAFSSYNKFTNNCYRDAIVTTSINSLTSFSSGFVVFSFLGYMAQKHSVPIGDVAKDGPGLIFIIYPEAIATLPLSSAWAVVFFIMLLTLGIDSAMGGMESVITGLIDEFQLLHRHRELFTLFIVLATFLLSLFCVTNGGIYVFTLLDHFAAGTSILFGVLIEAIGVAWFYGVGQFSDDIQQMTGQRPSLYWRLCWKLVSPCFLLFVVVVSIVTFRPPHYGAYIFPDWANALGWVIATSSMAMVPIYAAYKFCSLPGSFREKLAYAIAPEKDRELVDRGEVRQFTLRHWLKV
Experimental: as §1

[1] = system: mice on the FVB background; assay: Open field locomotor activity in mice; assay type: in vivo; details: 2.8 mg/kg, s.c., 20-min open field
Experimental: (§2) Since functional inhibition of neurotransmitter transporters, particularly DAT, is classically known to cause psychomotor stimulation, the ability of Compound (1) to induce this effect in mice was assessed, directly comparing results to α-PHP, a pyrrolidine-substituted analog of Compound (1). Adult male and female mice on the FVB background were injected subcutaneously and then immediately placed inside of an open field chamber, where their activity was recorded automatically for 20-min by an overhead camera connected to a PC running EthoVision XT software. […] Data are means (±SEM).

human NET [2] = biological target: T4, human NET (Homo sapiens, UniProt P23975); details: read-out: Uptake Inhibition (IC50) NET; from Eshleman et al. 2017; cited from earlier work
T4 sequence (P23975 whole entry): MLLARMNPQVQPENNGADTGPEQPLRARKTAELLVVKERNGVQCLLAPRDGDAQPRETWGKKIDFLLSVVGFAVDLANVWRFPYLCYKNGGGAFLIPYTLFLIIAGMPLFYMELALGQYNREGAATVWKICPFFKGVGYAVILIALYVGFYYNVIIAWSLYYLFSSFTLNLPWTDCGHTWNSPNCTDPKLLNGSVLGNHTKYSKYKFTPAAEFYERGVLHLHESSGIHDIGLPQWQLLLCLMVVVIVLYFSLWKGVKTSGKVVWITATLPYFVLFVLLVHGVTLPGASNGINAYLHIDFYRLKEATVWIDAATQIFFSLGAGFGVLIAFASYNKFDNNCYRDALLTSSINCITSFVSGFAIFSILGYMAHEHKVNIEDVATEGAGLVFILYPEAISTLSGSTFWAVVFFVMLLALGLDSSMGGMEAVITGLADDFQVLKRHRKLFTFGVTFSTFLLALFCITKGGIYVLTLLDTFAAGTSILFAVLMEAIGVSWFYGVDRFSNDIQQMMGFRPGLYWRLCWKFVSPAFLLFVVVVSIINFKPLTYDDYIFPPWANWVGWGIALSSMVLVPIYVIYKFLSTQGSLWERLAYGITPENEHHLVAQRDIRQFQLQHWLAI

human DAT [3] = biological target: T5, human DAT (Homo sapiens, UniProt Q01959); details: read-out: Uptake Inhibition (IC50) DAT; from Eshleman et al. 2017; cited from earlier work
T5 sequence (Q01959 whole entry): as the sequence (Q01959 whole entry) above

human SERT [4] = biological target: T6, human SERT (Homo sapiens, UniProt P31645); details: read-out: Affinity (Ki) SERT; from Eshleman et al. 2017; cited from earlier work
T6 sequence (P31645 whole entry): as the sequence (P31645 whole entry) above

human NET [5] = biological target: T4, human NET; details: from Eshleman et al. 2017, cited from earlier work
[6] = system: mice on the FVB background; assay: Defecation (fecal pellets) / gastrointestinal motility in mice; assay type: in vivo; details: 2.8 mg/kg, s.c.
Experimental: as §2
Consistent with pre-synaptic M2R antagonist activity, also observed was an increase in defecation caused by Compound (1) (FIG. 4). […] Regarding FIG. 4, Compound (1) (2.8 mg/kg, s.c.) increased gastrointestinal motility compared to vehicle and α-PHP (2.8 mg/kg, s.c.) treated mice. Scatter dot plots with means (±SEMs).

human SERT [7] = biological target: T6, human SERT; details: read-out: Uptake Inhibition (IC50) SERT; from Eshleman et al. 2017; cited from earlier work
human M1Rs = biological target: T7, human M1Rs (Homo sapiens, UniProt P11229); assay: M1R phosphoinositide hydrolysis (IP-One HTRF); assay type: cell-based
T7 construct: host or cells: HEK293 (CRL-1573, ATCC), transient
T7 sequence (P11229 1-460): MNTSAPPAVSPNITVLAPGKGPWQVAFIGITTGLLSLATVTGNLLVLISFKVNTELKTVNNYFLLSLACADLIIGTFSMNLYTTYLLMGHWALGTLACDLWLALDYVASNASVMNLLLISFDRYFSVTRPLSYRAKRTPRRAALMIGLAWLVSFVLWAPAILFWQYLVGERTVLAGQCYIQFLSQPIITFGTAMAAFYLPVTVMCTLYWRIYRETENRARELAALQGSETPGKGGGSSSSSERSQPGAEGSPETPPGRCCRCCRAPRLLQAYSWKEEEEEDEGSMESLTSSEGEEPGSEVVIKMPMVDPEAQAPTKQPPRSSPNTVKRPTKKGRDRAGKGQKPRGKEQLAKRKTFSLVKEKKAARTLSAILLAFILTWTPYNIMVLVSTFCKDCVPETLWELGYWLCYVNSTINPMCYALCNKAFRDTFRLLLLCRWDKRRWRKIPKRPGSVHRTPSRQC

M2Rs = biological target: T8, M2Rs (Homo sapiens, UniProt P08172); assay: M2R β-arrestin recruitment; assay type: cell-based
T8 sequence (P08172 1-466): T1 sequence (P08172 1-466)
From the text: Data are shown as normalized means (±SEM) of two, independent determinations, with oxotremorine tested at each concentration in duplicate and α-PHP tested in quadruplicate. [*Basal signaling is defined as the normalized RLU emitted by untreated cells.]

human DAT [8] = biological target: T5, human DAT; details: from Eshleman et al. 2017, cited from earlier work

Row | SMILES | IC50 (M2 (h)) [nM] | Kb (M2 (h)) [nM] | IC50 (5-HT transporter (h)) [nM] | Affinity (Ki) SERT (5-HT transporter (h)) | IC50 (Dopamine transporter (h)) [nM] | Ki (Dopamine transporter (h)) [nM] | nH (Dopamine transporter (h)) | locomotor activity [1] | number of fecal pellets (defecation, gastrointestinal motility) [6] | other results
1 | CCCCC(C(=O)c1ccccc1)N1CCCCCC1 (stereo not drawn) [Compound (2), 2-(azepan-1-yl)-1-phenylhexan-1-one] | 2000 | 160 | > 100000 | neither compound exhibiting demonstrable binding at SERT | 100 | 54 | 0.9 | – | – | Affinity (Ki) SERT (5-HT transporter (h); listed as Compound 2): N.B.
2 | CCCCC(C(=O)c1ccccc1)N1CCCC1 (stereo not drawn) [α-PHP, 1-phenyl-2-(pyrrolidin-1-yl)hexan-1-one] | – | – | – | – | – | – | – | robustly increased locomotor activity compared to vehicle | no significant difference was observed between the vehicle and α-PHP groups | IC50 (human NET [2]): 30 nM; IC50 (human DAT [3]): 22 nM; Ki (human SERT [4]): 33000 nM; affinity at NET, fold higher than α-PPP (human NET [5]): 6 fold; Ki (human NET [5]; read-out: Affinity (Ki) NET): 300 nM; IC50 (human SERT [7]): 40000 nM; Kb (human M1Rs): 1380 nM; Kb (M2Rs): 501 nM; affinity at DAT, fold higher than α-PPP (human DAT [8]): 81 fold; Ki (human DAT [8]; read-out: Affinity (Ki) DAT): 16 nM
3 | CCCCC(C(=O)c1ccccc1)N1CCCCC1 (stereo not drawn) [Compound (1), 1-phenyl-2-(piperidin-1-yl)hexan-1-one] | 1700 | 120 | > 100000 | neither compound exhibiting demonstrable binding at SERT | 72 | 38 | 1 | nearly indistinguishable from vehicle-treated mice | significantly higher than both vehicle (p<0.0001) and α-PHP treated mice | Affinity (Ki) SERT (5-HT transporter (h); listed as Compound 1): N.B.
